This note sets out measurements from patent publication US10525055B2, “Opioid receptor antagonist prodrugs” (Nirsum Laboratories, Inc., priority 2017, dated 2020).

A short description of series [1]: Plasma stability assay, rat plasma. Type of series: in vitro ADME. The conditions noted are these: 37° C., 10 μM.
Series [2] in a line: Physical characterization of solid state drug substance (PLM, XRPD, DSC, TGA). Type of series: physicochemical. The conditions noted are these: for Thermal Gravimetric Analysis, weight loss: at 120° C., heated from room temperature at 10° C./minute. Here is the method: The analysis of the physical characteristics of drug substances that were in a solid state was conducted using polarized light microscopy (PLM), X-ray powder diffractometer (XRPD) assessment, Differential Scanning calorimetry (DSC) and Thermal Gravimetric Analysis (TGA). For PLM, samples were dispersed in immersion oil and were observed using an ocular lens (10×) and objective lens (20×) under crossed polarizers. For XRPD, samples were run on a diffractometer using the following method: Tube—Cu: K-alpha (λ=1.54179 Å); Generator—Voltage 40 kV, Current 40 mA; Scan scope—3 to 40°; sample rotation speed—15 rpm; scanning rate—10 deg/min. For DSC, ˜1 mg of sample was tested using a crimped aluminum pan and covered by a lid with a hole, heated from room temperature to 300° C. at a speed of 10° C./minute. For TGA, 2-5 mg of sample was placed in an open platinum pan and heated from room temperature to 300° C. at a rate of 10° C./minute.

Series [3] can be described thus: Polymorph screening of solid state drug substances. The conditions noted are these: for XRPD results (Dried): stirred 50 °C 72 hours, solids dried; for Visual observation 50° C. / Visual observation RT: target conc. 100 mg/ml; for Comment: stability of initial crystal form (pattern A): polymorph screen over Heptane.
Series [4] is described as follows: Solubility determination in oil (cottonseed oil, sesame oil). The conditions noted are these: Sesame oil, heating temp. 60 °C. Here is the method:
A known amount of test substance (˜40 mg) was weighed into the vial, 100 μL of oil was added and heated to 60° C. and then system was slurried to reach equilibrium. […] Extra oil was added into the vial once compound precipitated out and then the system was re-equilibrated at 1000 rpm at room temperature (25° C.). Final concentration was determined by HPLC method as described below in Table 6a and 6b.

Where [5] appears, read: MTBE, Isopropanol, EtOAc, Acetone.

SMILES strings stand for the structures.

For the compound `CCCCCCCCCCOC(=O)Oc1ccc2c3c1O[C@H]1C(=O)CC[C@@]4(O)C(C2)N(CC2CC2)CC[C@]314` [Compound 10, (4aS,7aR,12bS)-3-(cyclopropylmethyl)-4a-hydroxy-7-oxo-2,3,4,4a,5,6,7,7a-octahydro-1H-4,12-methanobenzofuro[3,2-e]isoquinolin-9-yl decyl carbonate], in series [1], the “% remaining at time point in minutes, 0 min” value worked out at 100%; the “% remaining at time point in minutes, 15 min” value (shortened to “% remaining … 15 min”) amounted to 0%; the “% remaining at time point in minutes, 120 min” value (“% remaining … 120 min” below) was determined as 0%; the “% remaining at time point in minutes, 480 min” value (shortened to “% remaining … 480 min”) was 0%. Further, in series [1], the “% remaining at time point in minutes, 1440 min” value (“% remaining … 1440 min” for short) amounted to 0%. Besides, the “Thermal Gravimetric Analysis, weight loss” value in series [2] is given as “Weight loss of 0.3047%”. In addition, in series [3] (Acetone), the “XRPD results (Dried)” value is recorded as “Pattern A”, the “Visual observation 50° C.” value is recorded as “Clear” and the “Visual observation RT” value was “Slurry”. In addition, in series [3] (EtOAc), the “XRPD results (Dried)” value is listed as “Pattern A”, the “Visual observation 50° C.” value is reported as “Clear” and the “Visual observation RT” value is given as “Slurry”. For the same compound, in series [3] (Heptane), the “XRPD results (Dried)” value is reported as “Pattern A”, the “Visual observation 50° C.” value is “Slurry” and the “Visual observation RT” value is recorded as “Slurry”. In series [3] (Isopropanol), the “XRPD results (Dried)” value was “Pattern A”, the “Visual observation 50° C.” value is reported as “Clear” and the “Visual observation RT” value is “Slurry”. In series [3] (MTBE), the “XRPD results (Dried)” value is given as “Pattern A”, the “Visual observation 50° C.” value is recorded as “Clear” and the “Visual observation RT” value is recorded as “Clear”. In addition, the “Comment: stability of initial crystal form (pattern A)” value (“Comment: stability” for short) in series [3] (setting [5]) is “stable form. Same form (pattern A)”.

As for `CCCCCCCCCCCCOC(=O)Oc1ccc2c3c1O[C@H]1C(=O)CC[C@@]4(O)C(C2)N(CC2CC2)CC[C@]314` [Compound 11, (4aS,7aR,12bS)-3-(cyclopropylmethyl)-4a-hydroxy-7-oxo-2,3,4,4a,5,6,7,7a-octahydro-1H-4,12-methanobenzofuro[3,2-e]isoquinolin-9-yl dodecyl carbonate], in series [1], the “% remaining at time point in minutes, 0 min” value worked out at 100%; the “% remaining … 15 min” value amounted to 0.7%; the “% remaining … 120 min” value was 0.3%; the “% remaining … 480 min” value is 0.2%. The “% remaining … 1440 min” value in series [1] was 0%. In series [4] (obs. temp. 25 °C), the “Approximate Solubility (mg/mL) in Excipient: Sesame oil” value (from here on “Approximate Solubility (mg/mL)”) is recorded as below 50 mg/mL. The “Thermal Gravimetric Analysis, weight loss” value in series [2] is given as “Weight loss of 0.30% at”. Further, in series [3] (Acetone), the “XRPD results (Dried)” value is “Pattern A”, the “Visual observation 50° C.” value is “Clear” and the “Visual observation RT” value is recorded as “Slurry”. Moreover, in series [3] (EtOAc), the “XRPD results (Dried)” value is “Pattern A”, the “Visual observation 50° C.” value was “Clear” and the “Visual observation RT” value is “Slurry”. For the same compound, in series [3] (Heptane), the “XRPD results (Dried)” value is on record as “Pattern B”, the “Visual observation 50° C.” value is “Clear” and the “Visual observation RT” value was “Clear”. In series [3] (Isopropanol), the “XRPD results (Dried)” value was “Pattern A”, the “Visual observation 50° C.” value is recorded as “Clear” and the “Visual observation RT” value is given as “Slurry”. In addition, in series [3] (MTBE), the “XRPD results (Dried)” value is “Pattern A”, the “Visual observation 50° C.” value was “Clear” and the “Visual observation RT” value is recorded as “Clear”. Besides, the “Comment: stability” value in series [3] (setting [5]) is on record as “to be stable form; Pattern A generated”.

For `C=C1CC[C@@]2(O)C3Cc4ccc(OC(=O)OCCCCCCCCCCCCCCCC)c5c4[C@@]2(CCN3CC2CC2)[C@H]1O5` [Compound 19, (4aS,7aS,12bS)-3-(cyclopropylmethyl)-4a-hydroxy-7-methylene-2,3,4,4a,5,6,7,7a-octahydro-1H-4,12-methanobenzofuro[3,2-e]isoquinolin-9-yl hexadecyl carbonate], in series [1], the “% remaining at time point in minutes, 0 min” value was found to be 100%; the “% remaining … 15 min” value is recorded as 70.1%; the “% remaining … 120 min” value is listed as 71.5%; the “% remaining … 480 min” value is 43.8%. The “% remaining … 1440 min” value in series [1] amounted to 33.3%. For the same compound, the “Thermal Gravimetric Analysis, weight loss” value in series [2] is recorded as “Weight loss of 0.1623%”. For the same compound, in series [3] (Acetone), the “XRPD results (Dried)” value was “Pattern A”, the “Visual observation 50° C.” value is listed as “Clear” and the “Visual observation RT” value is “Slurry”. In series [3] (EtOAc), the “XRPD results (Dried)” value is listed as “Pattern A”, the “Visual observation 50° C.” value is reported as “Clear” and the “Visual observation RT” value was “Slurry”. Further, in series [3] (Heptane), the “XRPD results (Dried)” value was “Pattern A”, the “Visual observation 50° C.” value is recorded as “Clear” and the “Visual observation RT” value was “Slurry”. In series [3] (Isopropanol), the “XRPD results (Dried)” value was “Pattern A”, the “Visual observation 50° C.” value is “Clear” and the “Visual observation RT” value is “Slurry”. For the same compound, in series [3] (MTBE), the “XRPD results (Dried)” value is recorded as “Pattern A”, the “Visual observation 50° C.” value was “Clear” and the “Visual observation RT” value was “Clear”. In addition, the “Comment: stability” value in series [3] (setting [5]) is reported as “to be stable fomr. Same crystal form”.

`CCCCCCCCCCCCCCCCOC(=O)Oc1ccc2c3c1O[C@H]1C(=O)CC[C@@]4(O)C(C2)N(CC2CC2)CC[C@]314` [Compound 21, (4aS,7aR,12bS)-3-(cyclopropylmethyl)-4a-hydroxy-7-oxo-2,3,4,4a,5,6,7,7a-octahydro-1H-4,12-methanobenzofuro[3,2-e]isoquinolin-9-yl hexadecyl carbonate]: in series [1], the “% remaining at time point in minutes, 0 min” value worked out at 100%; the “% remaining … 15 min” value was determined as 73.5%; the “% remaining … 120 min” value is 68.3%; the “% remaining … 480 min” value was found to be 59.8%. In addition, in series [1], the “% remaining … 1440 min” value was 40.9%. For the same compound, in series [4] (obs. temp. 40 °C), the “Approximate Solubility (mg/mL)” value lay within 101 to 134.5 mg/mL. For the same compound, the “X-ray Powder Diffraction” value in series [2] (solid state drug substance, XRPD/PLM) is listed as “Crystal Form with partial”. Moreover, in series [3] (Acetone), the “XRPD results (Dried)” value was “Pattern A”, the “Visual observation 50° C.” value is given as “Clear” and the “Visual observation RT” value was “Slurry”. Moreover, in series [3] (EtOAc), the “XRPD results (Dried)” value was “Pattern A”, the “Visual observation 50° C.” value was “Clear” and the “Visual observation RT” value was “Slurry”. For the same compound, in series [3] (Heptane), the “XRPD results (Dried)” value was “Pattern A”, the “Visual observation 50° C.” value is reported as “Clear” and the “Visual observation RT” value is on record as “Slurry”. In addition, in series [3] (Isopropanol), the “XRPD results (Dried)” value is given as “Pattern A”, the “Visual observation 50° C.” value is “Clear” and the “Visual observation RT” value is reported as “Slurry”. In series [3] (MTBE), the “XRPD results (Dried)” value is “Pattern A”, the “Visual observation 50° C.” value is listed as “Clear” and the “Visual observation RT” value is recorded as “Clear”. In series [3] (setting [5]), the “Comment: stability” value was “stable form. Same crystal form”.

With `C=C1CC[C@@]2(O)C3Cc4ccc(OC(=O)OCCCCCCCCCCCCCC)c5c4[C@@]2(CCN3CC2CC2)[C@H]1O5` [Compound 31, (4aS,7aS,12bS)-3-(cyclopropylmethyl)-4a-hydroxy-7-methylene-2,3,4,4a,5,6,7,7a-octahydro-1H-4,12-methanobenzofuro[3,2-e]isoquinolin-9-yl tetradecyl carbonate], in series [1], the “% remaining at time point in minutes, 0 min” value was 100%; the “% remaining … 15 min” value is 123.2%; the “% remaining … 120 min” value was 73.5%; the “% remaining … 480 min” value was 54.4%. Also, in series [1], the “% remaining … 1440 min” value came out at 46.4%. In addition, in series [4] (obs. temp. 25 °C), the “Approximate Solubility (mg/mL)” value is recorded as above 413.5 mg/mL. Also, the “Thermal Gravimetric Analysis, weight loss” value in series [2] is “Weight loss of 0.7244%”. Further, in series [3] (Acetone), the “XRPD results (Dried)” value was “Pattern A”, the “Visual observation 50° C.” value is given as “Clear” and the “Visual observation RT” value was “Slurry”. For the same compound, in series [3] (EtOAc), the “XRPD results (Dried)” value was “Pattern A”, the “Visual observation 50° C.” value is “Clear” and the “Visual observation RT” value is recorded as “Clear”. In series [3] (Heptane), the “XRPD results (Dried)” value is given as “Pattern A”, the “Visual observation 50° C.” value is “Clear” and the “Visual observation RT” value is recorded as “Slurry”. In addition, in series [3] (Isopropanol), the “XRPD results (Dried)” value is “Pattern A”, the “Visual observation 50° C.” value is given as “Clear” and the “Visual observation RT” value is listed as “Clear”. Further, in series [3] (MTBE), the “XRPD results (Dried)” value is given as “Pattern A”, the “Visual observation 50° C.” value is on record as “Clear” and the “Visual observation RT” value was “Slurry”.
